Measurements taken from PubChem BioAssay (NCI).
Several values for one entry are separate records, joined by “and”; a condition that tells them apart may be missing. Equal values may be shown once.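 1) Cells in 96-well plates. 2) Compound, 48 h, 5 concentrations. 3) Linear interpolation between surrounding doses. 4) Unreached endpoint = highest concentration. GI50: concentration for 50% inhibition of growth. Definition used: TGI = concentration required for complete inhibition of growth.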

Tests used:
Experiment in all cases: DTP human tumour cell line panel, 48 h
[1] = system: SW-620 colon
[2] = system: SK-OV-3 ovarian
[3] = system: SK-MEL-5 melanoma
[4] = system: M14 melanoma
[5] = system: MOLT-4 leukemia
[6] = system: NCI/ADR-RES ovarian
[7] = system: A498 renal
[8] = system: SNB-75 CNS
[9] = system: SR leukemia
[10] = system: SNB-19 CNS
[11] = system: MCF7 breast
[12] = system: MDA-MB-231 breast
[13] = system: NCI-H23 lung
[14] = system: UACC-62 melanoma
[15] = system: T-47D breast
[16] = system: HCC-2998 colon
[17] = system: RXF 393 renal
[18] = system: UO-31 renal
[19] = system: SF-295 CNS
[20] = system: OVCAR-4 ovarian
[21] = system: CCRF-CEM leukemia
[22] = system: BT-549 breast
[23] = system: HCT-15 colon
[24] = system: SK-MEL-2 melanoma
[25] = system: HCT-116 colon
[26] = system: PC-3 prostate
[27] = system: NCI-H522 lung
[28] = system: U251 CNS
[29] = system: 786-0 renal
[30] = system: NCI-H226 lung
[31] = system: UACC-257 melanoma
[32] = system: HS 578T breast
[33] = system: HOP-92 NSCLC
[34] = system: SK-MEL-28 melanoma
[35] = system: HL-60(TB) leukemia
[36] = system: COLO 205 colon
[37] = system: KM12 colon
[38] = system: K-562 leukemia
[39] = system: SN12C renal
[40] = system: A549 NSCLC
[41] = system: NCI-H460 lung
[42] = system: HT29 colon
[43] = system: DU-145 prostate
[44] = system: CAKI-1 renal
[45] = system: LOX IMVI melanoma
[46] = system: HOP-62 NSCLC
[47] = system: OVCAR-5 ovarian
[48] = system: RPMI-8226 leukemia
[49] = system: OVCAR-3 ovarian
[50] = system: EKVX NSCLC
[51] = system: IGROV1 ovarian
[52] = system: MALME-3M melanoma
[53] = system: SF-268 CNS
[54] = system: MDA-N
[55] = system: MDA-MB-435
[56] = system: OVCAR-8 ovarian
[57] = system: ACHN renal
[58] = system: TK-10 renal
[59] = system: SF-539 CNS

## COC1C=C(NCC2(CO)CCC2)NC(N)=N1 (centres undefined)
[1]
  TGI: > 100 µM
[2]
  TGI: > 100 µM
[3]
  TGI: > 100 µM
[4]
  TGI: > 100 µM
[5]
  TGI: > 100 µM
[6]
  TGI: > 100 µM
[7]
  TGI: > 100 µM
[8]
  TGI: > 100 µM
[9]
  TGI: > 100 µM
[10]
  TGI: > 100 µM
[11]
  TGI: > 100 µM
[12]
  TGI: > 100 µM
[13]
  TGI: > 100 µM
[14]
  TGI: > 100 µM
[15]
  TGI: > 100 µM
[16]
  TGI: > 100 µM
[17]
  TGI: > 100 µM
[18]
  TGI: > 100 µM
[19]
  TGI: > 100 µM
[20]
  TGI: > 100 µM
[21]
  TGI: > 100 µM
[22]
  TGI: > 100 µM
[23]
  TGI: > 100 µM
[24]
  TGI: > 100 µM
[25]
  TGI: > 100 µM
[26]
  TGI: > 100 µM
[27]
  TGI: > 100 µM
[28]
  TGI: > 100 µM
[29]
  TGI: > 100 µM
[30]
  TGI: > 100 µM
[31]
  TGI: > 100 µM
[32]
  TGI: > 100 µM
[33]
  TGI: > 100 µM
[34]
  TGI: > 100 µM
[35]
  TGI: > 100 µM
[36]
  TGI: > 100 µM
[37]
  TGI: > 100 µM
[38]
  TGI: > 100 µM
[39]
  TGI: > 100 µM
[40]
  TGI: > 100 µM
[41]
  TGI: > 100 µM
[42]
  TGI: > 100 µM
[43]
  TGI: > 100 µM
[44]
  TGI: > 100 µM
[45]
  TGI: > 100 µM
[46]
  TGI: > 100 µM
[47]
  TGI: > 100 µM
[48]
  TGI: > 100 µM
[49]
  TGI: > 100 µM
[50]
  TGI: > 100 µM
[51]
  TGI: > 100 µM
[52]
  TGI: > 100 µM
[53]
  TGI: > 100 µM
[54]
  TGI: > 100 µM
[55]
  TGI: > 100 µM
[56]
  TGI: > 100 µM

## CC1(C)CCCCCCCCCC(C)(CCCO)C1=O (centres undefined)
[1]
  TGI: 34.1 µM
[2]
  TGI: 31.4 µM
[3]
  TGI: 31.3 µM
[4]
  TGI: 27.4 µM
[5]
  TGI: 41.9 µM
[6]
  TGI: 30.5 µM
[7]
  TGI: 33.1 µM
[8]
  TGI: 31.9 µM
[9]
  TGI: > 100 µM
[10]
  TGI: 31.9 µM
[11]
  TGI: 31.1 µM
[12]
  TGI: 28.7 µM
[13]
  TGI: 29.1 µM
[14]
  TGI: 32.4 µM
[15]
  TGI: 29.3 µM
[16]
  TGI: 33.7 µM
[17]
  TGI: 34.4 µM
[18]
  TGI: 24.4 µM
[19]
  TGI: 32.7 µM
[20]
  TGI: 29 µM
[21]
  TGI: 92.4 µM
[22]
  TGI: 31.6 µM
[23]
  TGI: 31.8 µM
[24]
  TGI: 28.9 µM
[25]
  TGI: 31.2 µM
[26]
  TGI: 27 µM
[27]
  TGI: 29.7 µM
[28]
  TGI: 30.4 µM
[29]
  TGI: 30.7 µM
[30]
  TGI: 31 µM
[31]
  TGI: 31.8 µM
[32]
  TGI: 37.9 µM
[33]
  TGI: 27.7 µM
[34]
  TGI: 34.2 µM
[35]
  TGI: 45 µM
[36]
  TGI: 30.1 µM
[37]
  TGI: 33 µM
[38]
  TGI: 73.7 µM
[39]
  TGI: 32.2 µM
[40]
  TGI: 28.8 µM
[41]
  TGI: 33.6 µM
[42]
  TGI: 26.6 µM
[57]
  TGI: 31.7 µM
[43]
  TGI: 31 µM
[44]
  TGI: 31.6 µM
[45]
  TGI: 32.9 µM
[46]
  TGI: 30.3 µM
[47]
  TGI: 28.8 µM
[48]
  TGI: 84.8 µM
[49]
  TGI: 34.1 µM
[50]
  TGI: 36.7 µM
[51]
  TGI: 31.4 µM
[52]
  TGI: 30.6 µM
[53]
  TGI: 33.4 µM
[54]
  TGI: 30 µM
[55]
  TGI: 34 µM
[56]
  TGI: 35.8 µM

## CN(C)CCOC1(Cc2ccc(Cl)cc2Cl)CCC(C(C)(C)C)CC1 (centres undefined)
[1]
  GI50: 1.73 µM
  TGI: 3.84 µM and 4.78 µM
[2]
  GI50: 4.79 µM
  TGI: 4.22 µM and 11 µM
[3]
  GI50: 2.05 µM
  TGI: 3.07 µM and 3.61 µM
[4]
  TGI: 3.25 µM and 3.11 µM
[5]
  TGI: 4.72 µM and 4.23 µM
[6]
  GI50: 1.99 µM
  TGI: 4.52 µM and 3.12 µM
[7]
  GI50: 2.07 µM
  TGI: 5.18 µM and 3.95 µM
[8]
  GI50: 2.52 µM
  TGI: 3.89 µM and 7.39 µM
[9]
  GI50: 1.87 µM
  TGI: 4.64 µM and 1.47 µM
[58]
  GI50: 2.02 µM
  TGI: 4.99 µM and 2.75 µM
[10]
  TGI: 3.44 µM and 3.74 µM
[11]
  GI50: 1.79 µM
  TGI: 3.49 µM and 3.65 µM
[12]
  GI50: 3.39 µM
  TGI: 8.16 µM and 3.34 µM
[59]
  TGI: 14.5 µM and 3.46 µM
[13]
  TGI: 5.74 µM and 4.15 µM
[14]
  GI50: 3.7 µM
  TGI: 3.9 µM and 9.66 µM
[15]
  GI50: 1.92 µM and 2.09 µM
  TGI: 4.42 µM and 4.24 µM
[16]
  TGI: 3.37 µM and 3.23 µM
[17]
  GI50: 1.68 µM
  TGI: 3.11 µM and 3.28 µM
[18]
  GI50: 2.17 µM and 1.45 µM
  TGI: 6.27 µM and 2.83 µM
[19]
  TGI: 3.2 µM and 3.41 µM
[20]
  TGI: 3.87 µM and 3.85 µM
[21]
  TGI: 4.69 µM and 5.32 µM
[22]
  TGI: 3.16 µM and 3.25 µM
[23]
  GI50: 1.57 µM
  TGI: 3.44 µM and 3.06 µM
[24]
  TGI: 3.89 µM and 3.33 µM
[25]
  TGI: 3.13 µM and 3.45 µM
[26]
  TGI: 3.68 µM and 4.1 µM
[27]
  TGI: 3.44 µM and 3.85 µM
[28]
  TGI: 2.9 µM and 3.45 µM
[29]
  TGI: 3.33 µM and 2.98 µM
[30]
  GI50: 2.19 µM and 4.67 µM
  TGI: 5.13 µM and 10.7 µM
[31]
  GI50: 1.64 µM
  TGI: 3.75 µM and 3.24 µM
[32]
  TGI: 5.2 µM and 5.27 µM
[33]
  GI50: 1.8 µM and 2.12 µM
  TGI: 3.54 µM and 5.92 µM
[34]
  TGI: 3.2 µM and 2.83 µM
[35]
  GI50: 1.45 µM and 2.08 µM
  TGI: 3.61 µM and 3.92 µM
[36]
  TGI: 3.28 µM and 3.23 µM
[37]
  TGI: 3.27 µM and 3.36 µM
[38]
  TGI: 3.77 µM and 3.94 µM
[39]
  TGI: 3.32 µM
[40]
  TGI: 5.85 µM and 4.22 µM
[41]
  TGI: 3.18 µM and 2.66 µM
[42]
  TGI: 3.16 µM and 3.13 µM
[57]
  GI50: 1.99 µM
  TGI: 5.28 µM and 4.05 µM
[43]
  GI50: 1.89 µM and 2.68 µM
  TGI: 5.91 µM and 6.45 µM
[44]
  GI50: 5.18 µM
  TGI: 4.35 µM and 10.6 µM
[45]
  TGI: 2.97 µM and 3.06 µM
[46]
  TGI: 3.06 µM and 3.32 µM
[47]
  GI50: 2.09 µM
  TGI: 5.54 µM and 3.55 µM
[48]
  TGI: 4.92 µM and 5.42 µM
[49]
  GI50: 2.03 µM
  TGI: 3.07 µM and 3.92 µM
[50]
  GI50: 3.04 µM and 4.01 µM
  TGI: 8.25 µM and 9.01 µM
[51]
  GI50: 2.38 µM
  TGI: 6.33 µM and 3.25 µM
[52]
  TGI: 4.41 µM and 3.24 µM
[53]
  GI50: 2.28 µM
  TGI: 7.89 µM and 6.85 µM
[54]
  TGI: 3.31 µM
[55]
  TGI: 2.89 µM and 3.18 µM
[56]
  TGI: 3.59 µM and 3.74 µM
